Here are results for five molecules from patent publication US20050260264A1, “Dosage form for delivery of multiple drug forms” (priority 2004, published 2005).

The structures appear in SMILES notation. Structures can show the parent of a compound that is named as a salt. Where two headings read alike, the source gives them in different places.

The nature of series [1]: osmotic pressure of the drug. The class given is physicochemical.
Series [2] can be described thus: solubility of the pharmaceutical agent in water. The class given is physicochemical. The method, then: As defined herein, the solubility of a pharmaceutical agent is determined by adding the pharmaceutical agent to stirred or agitated de-ionized water maintained in a constant temperature bath at a temperature of 37° C. until no more pharmaceutical agent dissolves. The resulting solution saturated with the pharmaceutical agent is then filtered, typically under pressure through a 0.8-micron Millipore filter, and the concentration of the pharmaceutical agent in the solution is measured by any appropriate analytical method including gravimetric, ultraviolet spectrophometry, chromatography, and the like. The solubility of the pharmaceutical agent is measured at saturated concentration.

In the case of `CNC(=C[N+](=O)[O-])NCCSCc1ccc(CN(C)C)o1.Cl` [Ranitidine HCl, ranitidine hydrochloride], the “osmotic pressure of the drug” value in series [1] is recorded as 95 atmospheres.
For `CN1CCN(CCCN2c3ccccc3Sc3ccc(Cl)cc32)CC1` [prochlorperazine base], the “solubility in water (aqueous solubility)” value in series [2] is 0.1 to 1 mg per milliliter.
Same read-out and setting: then `CN1CCN(CCCN2c3ccccc3Sc3ccc(Cl)cc32)CC1` [prochlorperazine edisilate], with “about 500 mg per milliliter”.
Regarding `CCC(=O)O[C@](Cc1ccccc1)(c1ccccc1)[C@H](C)CN(C)C` [propoxyphene base], in series [2], the “solubility in water (in words)” value is listed as “only slightly soluble”.
Consider `CCC(=O)O[C@](Cc1ccccc1)(c1ccccc1)[C@H](C)CN(C)C` [propoxyphene hydrochloride], for which, in series [2] (hydrochloride), the “solubility in water (in words)” value is “freely soluble”.
